Reference: a polymer gas permeability compilation

With *c1ccc(C(c2ccc(-c3nc4cc(C(c5ccc6oc(*)nc6c5)(C(F)(F)F)C(F)(F)F)ccc4o3)cc2)(C(F)(F)F)C(F)(F)F)cc1 (repeat unit) as the molecule, how does the CH4 permeability read?
Its CH4 permeability is 176 Barrer.

And the CO2 permeability?
The CO2 permeability was 4540 Barrer.

What about the H2 permeability of the same molecule?
The H2 permeability was 3900 Barrer.

What about the N2 permeability of the same molecule?
Its N2 permeability is 300 Barrer.

And the O2 permeability?
Its O2 permeability is 1150 Barrer.

With *c1ccc(Oc2ccc(-c3cccc(-c4ccc(Oc5ccc(N6C(=O)c7ccc(C(c8ccc9c(c8)C(=O)N(*)C9=O)(C(F)(F)F)C(F)(F)F)cc7C6=O)cc5)c(C(F)(F)F)c4)n3)cc2C(F)(F)F)cc1 (repeat unit) as the molecule, how does the CH4 permeability read?
The CH4 permeability was 1.95 Barrer.

And the CO2 permeability?
Its CO2 permeability is 51.9 Barrer.

What about the N2 permeability of the same molecule?
Its N2 permeability is 1.91 Barrer.

What about the O2 permeability of the same molecule?
The O2 permeability was 12.2 Barrer.

For *OCC1OC(COCC)C(*)C(OCC)C1OCC (repeat unit), which CH4 permeability is on record?
Its CH4 permeability is 6.1 Barrer.

And the CO2 permeability?
The CO2 permeability was 67.7 Barrer.

What about the H2 permeability of the same molecule?
The H2 permeability was 54.4 Barrer.

And the N2 permeability?
Its N2 permeability is 3.18 Barrer.

What about the O2 permeability of the same molecule?
The O2 permeability was 11.9 Barrer.

For *Oc1ccc(S(=O)(=O)c2ccc(Oc3ccc4cc(*)ccc4c3)cc2)cc1 (repeat unit), which CH4 permeability is on record?
The CH4 permeability was 0.0366 Barrer.

And the CO2 permeability?
The CO2 permeability was 1.5 Barrer.

What about the H2 permeability of the same molecule?
Its H2 permeability is 7.25 Barrer.

What about the N2 permeability of the same molecule?
Its N2 permeability is 0.0507 Barrer.

What about the O2 permeability of the same molecule?
Its O2 permeability is 0.38 Barrer.

Which CO2 permeability does the source give for *CC(*)F (repeat unit) here?
The CO2 permeability was 0.0791 Barrer.

What about the H2 permeability of the same molecule?
The H2 permeability was 0.35 Barrer.

Which CH4 permeability does the source give for *c1ccc(-c2ccc(Oc3ccc4c(c3)C3(CC4(C)C)CC(C)(C)c4ccc(Oc5ccc(-c6ccc(N7C(=O)c8ccc(C(c9ccc%10c(c9)C(=O)N(*)C%10=O)(C(F)(F)F)C(F)(F)F)cc8C7=O)cc6)cc5C(F)(F)F)cc43)c(C(F)(F)F)c2)cc1 (repeat unit) here?
The CH4 permeability was 1.21 Barrer.

What about the CO2 permeability of the same molecule?
The CO2 permeability was 53 Barrer.

And the N2 permeability?
The N2 permeability was 3.35 Barrer.

What about the O2 permeability of the same molecule?
The O2 permeability was 36.1 Barrer.

For *c1c(C)c(C)c(N2C(=O)c3ccc(Oc4cc(C(C)(C)C)cc(C)c4Oc4ccc5c(c4)C(=O)N(*)C5=O)cc3C2=O)c(C)c1C (repeat unit), which CH4 permeability is on record?
Its CH4 permeability is 2.2 Barrer.

What about the CO2 permeability of the same molecule?
Its CO2 permeability is 67 Barrer.

What about the H2 permeability of the same molecule?
The H2 permeability was 110 Barrer.

What about the N2 permeability of the same molecule?
The N2 permeability was 2.5 Barrer.

What about the O2 permeability of the same molecule?
The O2 permeability was 13 Barrer.

What does the source list for *c1ccc(Oc2ccc(C(c3ccc(Oc4ccc(-n5c(=O)c6cc7c(=O)n(*)c(=O)c7cc6c5=O)cc4C(F)(F)F)cc3)(C(F)(F)F)C(F)(F)F)cc2)c(C(F)(F)F)c1 (repeat unit)?
CH4 permeability: 0.937 Barrer; CO2 permeability: 24.6 Barrer; H2 permeability: 50.4 Barrer; N2 permeability: 1.5 Barrer; O2 permeability: 7.06 Barrer

For *C(C)=C(*)CCC (repeat unit), which CH4 permeability is on record?
Its CH4 permeability is 21 Barrer.

What about the CO2 permeability of the same molecule?
The CO2 permeability was 120 Barrer.

What about the H2 permeability of the same molecule?
Its H2 permeability is 160 Barrer.

What about the N2 permeability of the same molecule?
Its N2 permeability is 12 Barrer.

What about the O2 permeability of the same molecule?
The O2 permeability was 39 Barrer.

With *CC(C)O* (repeat unit) as the molecule, how does the CH4 permeability read?
Its CH4 permeability is 34 Barrer.

What about the CO2 permeability of the same molecule?
The CO2 permeability was 190 Barrer.

What about the H2 permeability of the same molecule?
The H2 permeability was 42 Barrer.

What about the N2 permeability of the same molecule?
Its N2 permeability is 11 Barrer.

And the O2 permeability?
The O2 permeability was 28 Barrer.

Which CH4 permeability does the source give for *c1ccc(Cc2ccc(N3C(=O)c4ccc(-c5ccc6c(c5)C(=O)N(*)C6=O)cc4C3=O)cc2Br)c(Br)c1 (repeat unit) here?
Its CH4 permeability is 0.0054 Barrer.

What about the CO2 permeability of the same molecule?
The CO2 permeability was 0.315 Barrer.

And the N2 permeability?
The N2 permeability was 0.0103 Barrer.

What about the O2 permeability of the same molecule?
Its O2 permeability is 0.0923 Barrer.

With *c1ccc(Oc2ccc(C3(c4ccc(Oc5ccc(N6C(=O)c7ccc(C(c8ccc9c(c8)C(=O)N(*)C9=O)(C(F)(F)F)C(F)(F)F)cc7C6=O)cc5)cc4)OC(=O)c4ccccc43)cc2)cc1 (repeat unit) as the molecule, how does the CH4 permeability read?
The CH4 permeability was 0.455 Barrer.

And the CO2 permeability?
The CO2 permeability was 16.5 Barrer.

And the N2 permeability?
The N2 permeability was 0.965 Barrer.

And the O2 permeability?
Its O2 permeability is 4.83 Barrer.

Which results are given for *Oc1cc2c(cc1O*)C1(c3cc(C)ccc3-2)c2cc(C)ccc2-c2cc3c(cc21)Oc1c(C#N)c(*)c(*)c(C#N)c1O3 (repeat unit)?
CH4 permeability: 582 Barrer; CO2 permeability: 8500 Barrer; H2 permeability: 4430 Barrer; N2 permeability: 380 Barrer; O2 permeability: 1510 Barrer

With *CC(*)c1ccc(C([Si](C)(C)C)[Si](C)(C)C)cc1 (repeat unit) as the molecule, how does the CO2 permeability read?
Its CO2 permeability is 150 Barrer.

What about the N2 permeability of the same molecule?
The N2 permeability was 10.1 Barrer.

And the O2 permeability?
The O2 permeability was 37.7 Barrer.

Which CH4 permeability does the source give for *C(C)=C(*)CCCCCCC (repeat unit) here?
The CH4 permeability was 83.5 Barrer.

What about the CO2 permeability of the same molecule?
The CO2 permeability was 290 Barrer.

What about the H2 permeability of the same molecule?
The H2 permeability was 145 Barrer.

What about the N2 permeability of the same molecule?
Its N2 permeability is 29 Barrer.

What about the O2 permeability of the same molecule?
The O2 permeability was 72.5 Barrer.

With *Oc1ccc(S(=O)(=O)c2ccc(Oc3ccc(C(C)(C)c4ccc(*)c(C(OC)(C(F)(F)F)C(F)(F)F)c4)cc3C(OC)(C(F)(F)F)C(F)(F)F)cc2)cc1 (repeat unit) as the molecule, how does the CO2 permeability read?
Its CO2 permeability is 7.7 Barrer.

And the N2 permeability?
The N2 permeability was 0.26 Barrer.

And the O2 permeability?
The O2 permeability was 2 Barrer.

What does the source list for *c1ccc(Cc2ccc(N3C(=O)c4cc(Oc5ccccc5)c(-c5cc6c(cc5Oc5ccccc5)C(=O)N(*)C6=O)cc4C3=O)cc2)cc1 (repeat unit)?
CH4 permeability: 0.85 Barrer; CO2 permeability: 29 Barrer; N2 permeability: 0.73 Barrer; O2 permeability: 3.36 Barrer

What does the source list for *c1ccc(Sc2ccc(Sc3ccc(Sc4ccc(N5C(=O)c6ccc(C(c7ccc8c(c7)C(=O)N(*)C8=O)(C(F)(F)F)C(F)(F)F)cc6C5=O)cc4)cc3)cc2)cc1 (repeat unit)?
CH4 permeability: 0.22 Barrer; CO2 permeability: 8.37 Barrer; N2 permeability: 0.37 Barrer; O2 permeability: 1.72 Barrer

Which CO2 permeability does the source give for *CC(*)OC(=O)c1ccccc1 (repeat unit) here?
Its CO2 permeability is 6.32 Barrer.

For *C(=C(*)c1ccc([Si](C)(C)CCCCCCCC)cc1)c1ccc(C(C)(C)C)cc1 (repeat unit), which CO2 permeability is on record?
The CO2 permeability was 100 Barrer.

And the N2 permeability?
Its N2 permeability is 7.5 Barrer.

And the O2 permeability?
The O2 permeability was 26 Barrer.

For */C(C)=C(/*)[Si](C)(C)CCCCCCCC (repeat unit), which CH4 permeability is on record?
The CH4 permeability was 13 Barrer.

What about the CO2 permeability of the same molecule?
Its CO2 permeability is 100 Barrer.

And the H2 permeability?
The H2 permeability was 47 Barrer.

And the N2 permeability?
Its N2 permeability is 19 Barrer.

What about the O2 permeability of the same molecule?
Its O2 permeability is 23 Barrer.

With *CC(O)C* (repeat unit) as the molecule, how does the CH4 permeability read?
Its CH4 permeability is 0.019 Barrer.

What about the CO2 permeability of the same molecule?
Its CO2 permeability is 0.4 Barrer.

What about the N2 permeability of the same molecule?
The N2 permeability was 0.015 Barrer.

And the O2 permeability?
Its O2 permeability is 0.1 Barrer.
